Assay results reported in PubChem BioAssay AID2060513 (Molecular Pharmacology Branch, DTP, NCI, 2025).

Test system: 299254-011-R-J1-PDC complex spheroids viability
Test: Anticancer human tumor 299254-011-R-J1-PDC patient-derived melanoma cell line growth inhibition [GQUAD]
Conditions: for IC50: curve of first compound; for viability, T/C: stronger effect = lower value
Procedure, shortened: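 Multi-cell-type spheroids of tumor cells with HUVEC and mesenchymal stem cells, treated with drug combinations. Concentrations descend in half-log steps from near clinical Cmax, or from 10 microM where Cmax is unknown; viability read-out.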

[1] = second compound 0.0316 µM, first compound 0.0316 µM
[2] = second compound 0.0316 µM, first compound 0.316 µM
[3] = second compound 0.1 µM, first compound 0.0316 µM
[4] = second compound 0.1 µM, first compound 0.316 µM
[5] = second compound 0.316 µM, first compound 0.0316 µM
[6] = second compound 0.316 µM, first compound 0.316 µM
[7] = second compound 1 µM, first compound 0.0316 µM
[8] = second compound 1 µM, first compound 0.316 µM
[9] = second compound 3.16 µM, first compound 0.0316 µM
[10] = second compound 3.16 µM, first compound 0.316 µM
[11] = second compound 10 µM, first compound 0.0316 µM
[12] = second compound 10 µM, first compound 0.316 µM
[13] = second compound 0.0316 µM, first compound 0.1 µM
[14] = second compound 0.0316 µM, first compound 1 µM
[15] = second compound 0.0316 µM, first compound 3.16 µM
[16] = second compound 0.0316 µM, first compound 10 µM
[17] = second compound 0.1 µM, first compound 0.1 µM
[18] = second compound 0.1 µM, first compound 1 µM
[19] = second compound 0.1 µM, first compound 3.16 µM
[20] = second compound 0.1 µM, first compound 10 µM
[21] = second compound 0.316 µM, first compound 0.1 µM
[22] = second compound 0.316 µM, first compound 1 µM
[23] = second compound 0.316 µM, first compound 3.16 µM
[24] = second compound 0.316 µM, first compound 10 µM
[25] = second compound 1 µM, first compound 0.1 µM
[26] = second compound 1 µM, first compound 1 µM
[27] = second compound 1 µM, first compound 3.16 µM
[28] = second compound 1 µM, first compound 10 µM
[29] = second compound 3.16 µM, first compound 0.1 µM
[30] = second compound 3.16 µM, first compound 1 µM
[31] = second compound 3.16 µM, first compound 3.16 µM
[32] = second compound 3.16 µM, first compound 10 µM
[33] = second compound 10 µM, first compound 0.1 µM
[34] = second compound 10 µM, first compound 1 µM
[35] = second compound 10 µM, first compound 3.16 µM
[36] = second compound 10 µM, first compound 10 µM
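Further: spheroids exposed to the agents for seven days before readout.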
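Wherever viability, T/C is given: percent viability relative to DMSO vehicle control wells = 100%.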

## Cc1[nH]c2ccccc2c1CCNCc1ccc(/C=C/C(=O)NO)cc1 + CN(C)c1ccc(Nc2c3ccc(NC(=O)CCN4CCCC4)cc3nc3cc(NC(=O)CCN4CCCC4)ccc23)cc1
Second compound 0.0316 µM
  IC50: 161 nM
Second compound 0.1 µM
  IC50: 138 nM
Second compound 0.316 µM
  IC50: 171 nM
Second compound 1 µM
  IC50: 188 nM
Second compound 3.16 µM
  IC50: 151 nM
Second compound 10 µM
  IC50: 134 nM
Second compound 0.0316 µM, first compound 0.000999 µM
  viability, T/C: 96.8%
Second compound 0.0316 µM, first compound 0.00316 µM
  viability, T/C: 81.8%
Second compound 0.0316 µM, first compound 0.00999 µM
  viability, T/C: 89.2%
[1]
  viability, T/C: 82.9%
Second compound 0.0316 µM, first compound 0.0999 µM
  viability, T/C: 74.8%
[2]
  viability, T/C: 16.3%
Second compound 0.1 µM, first compound 0.000999 µM
  viability, T/C: 86%
Second compound 0.1 µM, first compound 0.00316 µM
  viability, T/C: 102%
Second compound 0.1 µM, first compound 0.00999 µM
  viability, T/C: 86.8%
[3]
  viability, T/C: 90.3%
Second compound 0.1 µM, first compound 0.0999 µM
  viability, T/C: 63.7%
[4]
  viability, T/C: 15%
Second compound 0.316 µM, first compound 0.000999 µM
  viability, T/C: 95.3%
Second compound 0.316 µM, first compound 0.00316 µM
  viability, T/C: 88.5%
Second compound 0.316 µM, first compound 0.00999 µM
  viability, T/C: 87%
[5]
  viability, T/C: 97.3%
Second compound 0.316 µM, first compound 0.0999 µM
  viability, T/C: 77%
[6]
  viability, T/C: 19.3%
Second compound 1 µM, first compound 0.000999 µM
  viability, T/C: 101%
Second compound 1 µM, first compound 0.00316 µM
  viability, T/C: 110%
Second compound 1 µM, first compound 0.00999 µM
  viability, T/C: 73.4%
[7]
  viability, T/C: 92.4%
Second compound 1 µM, first compound 0.0999 µM
  viability, T/C: 87.8%
[8]
  viability, T/C: 18.7%
Second compound 3.16 µM, first compound 0.000999 µM
  viability, T/C: 111%
Second compound 3.16 µM, first compound 0.00316 µM
  viability, T/C: 110%
Second compound 3.16 µM, first compound 0.00999 µM
  viability, T/C: 86.6%
[9]
  viability, T/C: 107%
Second compound 3.16 µM, first compound 0.0999 µM
  viability, T/C: 68.9%
[10]
  viability, T/C: 16.2%
Second compound 10 µM, first compound 0.000999 µM
  viability, T/C: 103%
Second compound 10 µM, first compound 0.00316 µM
  viability, T/C: 121%
Second compound 10 µM, first compound 0.00999 µM
  viability, T/C: 98.8%
[11]
  viability, T/C: 95.7%
Second compound 10 µM, first compound 0.0999 µM
  viability, T/C: 61.7%
[12]
  viability, T/C: 14.7%

## C#Cc1c(F)ccc2cc(O)cc(-c3ncc4c(N5CC6CCC(C5)N6)nc(OCC56CCCN5CC(F)C6)nc4c3F)c12 (stereo not drawn) + Cc1[nH]c2ccc(F)cc2c1-c1nc2c3cccnc3c3ncccc3c2[nH]1
Second compound 0.0316 µM
  IC50: > 10000 nM
Second compound 0.1 µM
  IC50: > 10000 nM
Second compound 0.316 µM
  IC50: > 10000 nM
Second compound 1 µM
  IC50: > 10000 nM
Second compound 3.16 µM
  IC50: > 10000 nM
Second compound 10 µM
  IC50: > 10000 nM
[1]
  viability, T/C: 109%
[13]
  viability, T/C: 102%
[2]
  viability, T/C: 87.9%
[14]
  viability, T/C: 102%
[15]
  viability, T/C: 90.8%
[16]
  viability, T/C: 72.5%
[3]
  viability, T/C: 83.1%
[17]
  viability, T/C: 103%
[4]
  viability, T/C: 103%
[18]
  viability, T/C: 100%
[19]
  viability, T/C: 103%
[20]
  viability, T/C: 72.9%
[5]
  viability, T/C: 89.4%
[21]
  viability, T/C: 102%
[6]
  viability, T/C: 88.8%
[22]
  viability, T/C: 86.6%
[23]
  viability, T/C: 111%
[24]
  viability, T/C: 75.7%
[7]
  viability, T/C: 129%
[25]
  viability, T/C: 95.2%
[8]
  viability, T/C: 116%
[26]
  viability, T/C: 104%
[27]
  viability, T/C: 86.6%
[28]
  viability, T/C: 80.8%
[9]
  viability, T/C: 102%
[29]
  viability, T/C: 112%
[10]
  viability, T/C: 97.2%
[30]
  viability, T/C: 88.9%
[31]
  viability, T/C: 114%
[32]
  viability, T/C: 91.7%
[11]
  viability, T/C: 87.2%
[33]
  viability, T/C: 100%
[12]
  viability, T/C: 98.4%
[34]
  viability, T/C: 99.1%
[35]
  viability, T/C: 105%
[36]
  viability, T/C: 95.6%

## CC(C)(O)C1CCC(Nc2ccc3ncc(-c4cccc(C(F)(F)F)c4)n3n2)CC1 (stereo not drawn) + Cc1cnc(CNC(=O)c2c(=O)c3ccc(N4CCCN(C)CC4)nc3n3c2sc2ccccc23)cn1
Second compound 0.0316 µM
  IC50: > 10000 nM
Second compound 0.1 µM
  IC50: > 10000 nM
Second compound 0.316 µM
  IC50: > 10000 nM
Second compound 1 µM
  IC50: 4520 nM
Second compound 3.16 µM
  IC50: 1960 nM
Second compound 10 µM
  IC50: < 31.6 nM
[1]
  viability, T/C: 98.5%
[13]
  viability, T/C: 114%
[2]
  viability, T/C: 97.5%
[14]
  viability, T/C: 90.7%
[15]
  viability, T/C: 54.5%
[16]
  viability, T/C: 100%
[3]
  viability, T/C: 89.3%
[17]
  viability, T/C: 101%
[4]
  viability, T/C: 113%
[18]
  viability, T/C: 98.6%
[19]
  viability, T/C: 63.7%
[20]
  viability, T/C: 110%
[5]
  viability, T/C: 90.1%
[21]
  viability, T/C: 100%
[6]
  viability, T/C: 88.4%
[22]
  viability, T/C: 98.2%
[23]
  viability, T/C: 60%
[24]
  viability, T/C: 84%
[7]
  viability, T/C: 81.7%
[25]
  viability, T/C: 112%
[8]
  viability, T/C: 96.7%
[26]
  viability, T/C: 74.7%
[27]
  viability, T/C: 55.8%
[28]
  viability, T/C: 42.3%
[9]
  viability, T/C: 76.7%
[29]
  viability, T/C: 85.9%
[10]
  viability, T/C: 86.4%
[30]
  viability, T/C: 76.8%
[31]
  viability, T/C: 24.1%
[32]
  viability, T/C: 37.6%
[11]
  viability, T/C: 45.7%
[33]
  viability, T/C: 18%
[12]
  viability, T/C: 17.3%
[34]
  viability, T/C: 0.33%
[35]
  viability, T/C: 0.29%
[36]
  viability, T/C: 0.26%

## COc1ccc([C@@H](O)c2cc(-c3ncnc4cc(N5CCOCC5)ccc34)c(F)cc2Cl)nn1 + Cc1cnc(CNC(=O)c2c(=O)c3ccc(N4CCCN(C)CC4)nc3n3c2sc2ccccc23)cn1
Second compound 0.0316 µM
  IC50: 7510 nM
Second compound 0.1 µM
  IC50: 6850 nM
Second compound 0.316 µM
  IC50: 3150 nM
Second compound 1 µM
  IC50: 2790 nM
Second compound 3.16 µM
  IC50: 2710 nM
Second compound 10 µM
  IC50: < 31.6 nM
[1]
  viability, T/C: 75.6%
[13]
  viability, T/C: 87.8%
[2]
  viability, T/C: 83.6%
[14]
  viability, T/C: 82%
[15]
  viability, T/C: 83.4%
[16]
  viability, T/C: 39.2%
[3]
  viability, T/C: 86.4%
[17]
  viability, T/C: 82.5%
[4]
  viability, T/C: 109%
[18]
  viability, T/C: 88.2%
[19]
  viability, T/C: 78.1%
[20]
  viability, T/C: 36%
[5]
  viability, T/C: 84%
[21]
  viability, T/C: 87.4%
[6]
  viability, T/C: 86.6%
[22]
  viability, T/C: 68.1%
[23]
  viability, T/C: 51.6%
[24]
  viability, T/C: 32.4%
[7]
  viability, T/C: 81.5%
[25]
  viability, T/C: 76.6%
[8]
  viability, T/C: 73%
[26]
  viability, T/C: 80%
[27]
  viability, T/C: 46.6%
[28]
  viability, T/C: 26.7%
[9]
  viability, T/C: 67.2%
[29]
  viability, T/C: 63.1%
[10]
  viability, T/C: 57.2%
[30]
  viability, T/C: 62.8%
[31]
  viability, T/C: 47.7%
[32]
  viability, T/C: 23.2%
[11]
  viability, T/C: 0.4%
[33]
  viability, T/C: 24.3%
[12]
  viability, T/C: 45.3%
[34]
  viability, T/C: 21.1%
[35]
  viability, T/C: 0.32%
[36]
  viability, T/C: 0.26%
